The text below walks through data of patent publication US20060275250A1, “Reactive polymers and copolymers, method of their preparation and their use” (priority 2003, published 2006).

Converted amounts (≈) assume the structure as drawn.

Series [1] has as its system ConA-stimulated mouse T-splenocytes. The series can be described thus: In vitro cytotoxicity, [3H]thymidine incorporation, ConA-stimulated mouse T-splenocytes. The series is classed as cell-based. Conditions: Splenocyte, 50% decrease in proliferation. Here is the method:
(§1) In vitro cytotoxicity tests were performed by a standard method on ConA-stimulated and nonstimulated mouse T-splenocytes and on a tumour line of mouse T-cell lymphom EL-4. Cytotoxicity was followed by a change of incorporation of [^3H]thymidine into cells incubated in a medium containing the tested sample in various concentrations. The cytotoxicity was expressed by the IC50 factor (the substance concentration at which a 50% decrease in proliferation of tested cells is observed).
On the technique in general: Uptake of a labelled nucleoside into DNA is a usual measure of proliferation.

In series [2] the test system is mouse T-cell lymphom EL-4. The series can be described thus: In vitro cytotoxicity, [3H]thymidine incorporation, EL-4 tumour line. The class given is cell-based. Conditions: mouse T-cell lymphoma EL-4 line, 50% decrease in proliferation. How it is done:
as §1

The conditions of series [3]: clinical testing; cumulative dose reached 1680 mg/m^2; cited from earlier work.
Another series deals with human melanoma. The series can be described thus: Treatment of human melanoma in nu-nu mice. Conditions: compared with the conjugate from ONp or Su reactive polymer, FIG. 3. The series is classed as in vivo. The text has this:
The properties of the conjugate were compared with those of the conjugate prepared from the classic ONp reactive polymer. […] The synthesis using the reactive polymer according to the invention proceeded faster, a polymer with a smaller content of reactive groups (2 mol %) could be used for obtaining the same product, and in the resulting conjugate no unmodified protein or unreacted polymer was present (the conversion of the reaction of reactive groups was higher).
A star-like poly(HMPA)—RNase A conjugate was prepared from a semitelechelic polymer prepared according to Example 3 by the same procedure as in the synthesis starting from poly(HPMA) with succinimidyl end group. The star conjugate was purified from low-molecular-weight materials by preparative gel chromatography (Sephacryl S300, column 26×600 mm, flow-rate 12.5 ml/h, distilled water). After concentration using an ultrafiltration membrane (PM 30), the product was lyophilized. Comparing the conjugate syntheses using polymers with OSu and TT reactive groups, the latter led to higher reaction yields and much smaller amounts of unreacted (hydrolyzed) polymer in the reaction mixture.

For orientation: IC50 means the point on the concentration scale where inhibition reaches its midpoint. A higher IC50 goes with weaker potency in that assay.

Consider `COc1cccc2c1C(=O)c1c(O)c3c(c(O)c1C2=O)C[C@@](O)(C(=O)CO)C[C@@H]3O[C@H]1C[C@H](N)[C@H](O)[C@H](C)O1` [Dox, doxorubicin], for which the IC50 in series [1] came out at 0.07 µg/mL (≈ 0.129 µM); in series [2] it was 0.03 µg/mL (≈ 0.0552 µM).

Turning to “N-(2-hydroxypropyl)methacrylamide copolymer doxorubicin [PK1]”, in series [3], the “changes in cardial functions” value was “no serious changes in cardial functions were observed”.

B1: star-like poly(HMPA)—RNase A conjugate (conjugate, UniProt P61823 27-150, looked up)
Ribonuclease pancreatic: KETAAAKFERQHMDSSTSAASSSNYCNQMMKSRNLTKDRCKPVNTFVHESLADVQAVCSQKNVACKNGQTNCYQSYSTMSITDCRETGSSKYPNCAYKTTQANKHIIVACEGNPYVPVHFDASV
modifications: star-like poly(HPMA) polymer conjugate
B1: in the series on human melanoma, the “biological properties / in vivo activity in the treatment of human melanoma” value is recorded as “active under in vivo conditions equally well as the conjugate prepared from reactive Su ester”.
